The source of these data is paper PMC9722955 (Frontiers in Pharmacology, 2022).

The target of data set [1] is T1, recombinant human CYP46A1 (Homo sapiens, UniProt Q9Y6A2).
T1 construct: purchased Cypex (Dundee, Scotland, United Kingdom)
Briefly: Inhibition of CYP46A1-catalysed testosterone 16β-hydroxylation. In kind it is biochemical. Particulars: for residual activity of CYP46A1: 10 μM lignan; for residual activity of CYP46A1 / IC50: testosterone 10 μM as substrate; for Ki: testosterone 2–150 μM; for Type of inhibition: testosterone as substrate; for α: mixed inhibition model. The procedure: 16β-hydroxytestosterone formation catalyzed by CYP46A1 was conducted at conditions linear for the duration of incubation and protein concentration. […] After preliminary incubation at 37°C for 5 min, 10 μL NADPH (final concentration, 1 mM) was added to initiate the reaction for 10 min. The reaction was stopped by adding the same volume of acetonitrile containing 1 μM of the internal standard. The mixture was left on ice until it was centrifuged at 20,000×g for 20 min at 4°C. Aliquots of the supernatant were stored at −20°C until analysis. The possible inhibitory intensities of the sesame lignans were evaluated by quantifying the 16-OH-TST generated.
Testosterone 16β-hydroxylation reaction samples were injected into an API 3200 triple quadrupole mass spectrometer (Applied Biosystems, Concord, Ontario, Canada) and an Agilent HP1200 LC system (Agilent Technology Inc., CA, United States). The chromatographic separation was performed on a Hypersil ODS-BP column (150 mm × 2.1 mm, 5 μm; Dalian Elite Analytical Instruments Co. Ltd., China) at ambient temperature. IonSpray Voltage (IS): 4500 V; Temperature (TEM): 590°C; Ion Source Gas1 (GS1, N1): […]; Ion Source Gas2 (GS2, N2): […]; Curtain Gas (CUR): 30 psi; Collision Gas (CAD): 12 psi. MS/MS conditions for analyzed compounds are shown in Supplementary Table S1. Mobile phase A consisted of 0.1% formic acid in water; mobile phase B consisted of 0.1% formic acid in acetonitrile; the flow rate was 0.4 ml/min. The gradient elution program was 0–1 min, 95% A; 1–3 min, 95%–65% A; 3–5 min, 65%–35% A; 5–6 min, 35%–15% A; 6–8 min, 15% A; 15%–95% A, 8–8.1 min; 8.1–12 min, 95% A. 16β-hydroxytestosterone and Carbamazepine (internal standard) were monitored in the positive ion mode, and detected by fragment ions at m/z 305.2→97.2 and 237.1→194.2, respectively. LC-MS/MS data acquisition and integration were performed with Analyst 1.6.3 using the internal standard and peak-area ratios for calculation (linear regression, 1/x weighting).
The three equations and the inhibition constant were as described in our previously published methods ([Wu et al., 2017]). v=Vmax⋅S/Km⋅(1+I/Ki)+S (1) v=Vmax⋅S/(Km+S)⋅(1+I/Ki) (2) v=Vmax⋅S/Km⋅(1+I/Ki)+S⋅(1+I/α⋅Ki) (3) where v is the reaction velocity; S and I denote the substrate and inhibitor concentrations, respectively; K i represents the inhibition constant describing the affinity of the inhibitor for the enzyme; K m refers to the substrate concentration at half-maximal velocity (V max) of the reaction. The α value determines the degree of change in enzyme affinity for the substrate following the binding of the inhibitor. When α is less than 1, binding of an inhibitor […] substrate binding, and the mixed model is identical to non-competitive inhibition. When α is very large (α > 1), the binding of an inhibitor […] substrate binding, and the mixed model depicts competitive inhibition. The type of inhibition was determined by fitting the data to enzyme inhibition models. The goodness-of-fit of kinetic and inhibition models was assessed using R ^2 values and parameter S.D. estimates. Dixon and Lineweaver-Burk plots were also used to characterize the inhibition kinetics. Kinetic constants are reported as the mean ± S.D. of the parameter estimate.

Data set [2] has as its system CYP46A1. Briefly: Western blotting of CYP46A1 protein in h-CYP46A1-Neuro-2a cells. In kind it is cell-based, human. Particulars: 20 μM, 24 h. The procedure:
MDCK-MDR1 cells and Neuro-2a-CYP46A1 cells were cultured in DMEM containing 10% (v/v) FBS, 1% nonessential amino acids, 100 U/mL penicillin G, and 100 μg/ml streptomycin, and incubated at 37°C in the presence of 5% CO2 and 95% humidity. The Neuro-2a-CYP46A1 cells were seeded into six-well plates at a density of 1 × 10^5 cells per well and cultured for 24 h. Drug intervention experiments were conducted by replacing the medium with a serum-free medium containing sesame ligands (20 μM) for 24 h.
The cells and tissues were harvested with lysis buffer and cleaved at 4°C for 20 min. All samples were centrifuged at 12,000 × g for 15 min at 4°C. The protein concentrations were quantified by BCA regent kits. Sodium dodecyl sulfate-polyacrylamide gel electrophoresis (SDS-PAGE) was used to separate the proteins, and they were then transferred to PVDF membranes. After incubation of the membranes with 5% non-fat milk for 2 h, they were then incubated with the primary antibodies at 4°C overnight. After washing three times, the membranes were incubated with the secondary antibody for 2 h. The protein bands were detected by a Tanon-5200 imaging system and the densities were analyzed by ImageJ software. The GAPDH antibody served as the internal control for sample loading.
(In general: A western blot detects proteins with antibodies after separation by electrophoresis.)

A short description of data set [3]: Membrane permeability assay across MDCK-MDR1 monolayer. Particulars: dog.
Description: (§3) To estimate the permeability of the sesamin lignans across the blood-brain barrier (BBB), a membrane permeability assay was conducted with an MDCK-MDR1 monolayer. The transport assays were performed by seeding MDCK-MDR1 cells on a tissue culture plate insert (BIOFIL®, PC membrane, 0.33 cm^2 surface area, 0.4 μm pore size) in 24-well companion plates for 5 days. The culture medium was changed once every 2–3 days. To confirm the confluency of the cell monolayer, the trans-epithelial electrical resistance (TEER) of each well was measured before the transport assay using a resistance meter (Millipore, Millicell® ERS-2, United States). […] The cell monolayer was gently washed with Hank’s Balanced Salt Solution (HBSS) at 37°C and the transwell chamber was pre-incubated for 30 min. […] After 120 min of incubation, a 50 μL sample was removed from the receiver compartment and uniformly mixed with 50 μL methanol. Then, it was centrifuged at 20,000 ×g at 4°C for 20 min. All available samples in the receiver compartments were injected into the HPLC system for analysis. The HPLC system comprised an Agilent MSD/MS system controller, two 1,260 series pumps, a 1,200 series autosampler, a 1,200 series variable wavelength detector, and an elite ODS-BP analysis column (4.6 × 200 mm, 5 μm). The mobile phase for sesame lignans was methanol/water (80/20, v/v), and the flow rate was 0.8 ml/min with a detector wavelength of 290 nm. […] Ultraviolet detection was performed at 230 nm. The permeability (P app) and efflux ratio (ER) were calculated as follows (Eqs. 4, 5) ([Grès et al., 1998]). Papp=dQ/dt⋅1/A⋅C0 (4) In Eq. (4), A denotes the area of mass transfer, C0 represents the donor concentration of compound in the upper medium, and dQ/dt is the rate of transmembrane transportation. […] ER=Papp, B→A/Papp, A→B (5)
(§4) In Eq. (5), P app, B→A denotes the basal to apical (B-A) transport rate, and P app, A→B is the apical to basal (A-B) transport rate.
Data set [4] has as its system CYP46A1 activity (24S-hydroxycholesterol). Briefly: 24S-hydroxycholesterol levels in rat plasma and brain (ELISA) after sesamin. It is filed as in vivo. Conditions: sesamin 60 mg/kg intragastric once daily, 4 weeks. The procedure: (§1) The experiments were reviewed and approved by the Experimental Animal Centre of Dalian Medical University. All rats were obtained from Liaoning Changsheng Biotechnology co., Ltd. All animal experiments complied with the ARRIVE guidelines and were carried out in accordance with the National Institutes of Health guide for the care and use of laboratory animals (NIH Publications No. […], revised 1978). Wistar rats were randomly divided into the administration group (n = 5) and the control group (n = 5). The rats were provided with laboratory standard animal feed and kept under a 12-h light cycle. Sesamin (60 mg/kg) was given by intragastric administration daily for 4 weeks; the control group was given an equivalent volume of olive oil. The rats were anesthetized with pentobarbital sodium (40 mg/kg) and blood samples and brain tissue samples were collected for further assays. The levels of 24S-hydroxycholesterol in rat plasma and brain tissues were measured by ELISA kits (Proteintech Group, Wuhan, China), according to the manufacturer’s instructions.
For orientation: ELISA stands for enzyme-linked immunosorbent assay.

The subject of data set [5] is CYP46A1. The data set can be described thus: Western blotting of rat brain tissue, CYP46A1. In kind it is in vivo. Conditions: sesamin 60 mg/kg, 4 weeks, vs control. The procedure: as §1, with “assays.” for “assays. The levels of 24S-hydroxycholesterol in rat plasma and brain tissues were measured by ELISA kits (Proteintech Group, Wuhan, China), according to the manufacturer’s instructions.”
(§2) The cells and tissues were harvested with lysis buffer and cleaved at 4°C for 20 min. All samples were centrifuged at 12,000 × g for 15 min at 4°C. The protein concentrations were quantified by BCA regent kits. Sodium dodecyl sulfate-polyacrylamide gel electrophoresis (SDS-PAGE) was used to separate the proteins, and they were then transferred to PVDF membranes. […] The protein bands were detected by a Tanon-5200 imaging system and the densities were analyzed by ImageJ software. […]

Data set [6] concerns HMGCR. Briefly: Western blotting of rat brain tissue, HMGCR. Particulars: sesamin 60 mg/kg, 4 weeks, vs control. It is filed as in vivo. The procedure: as §1, with “assays.” for “assays. The levels of 24S-hydroxycholesterol in rat plasma and brain tissues were measured by ELISA kits (Proteintech Group, Wuhan, China), according to the manufacturer’s instructions.”
as §2

Data set [7] relates to NMDAR2A. Briefly: Western blotting of rat brain tissue, NMDAR2A. It is filed as in vivo. Conditions: sesamin 60 mg/kg, 4 weeks, vs control. The procedure:
as §1, with “assays.” for “assays. The levels of 24S-hydroxycholesterol in rat plasma and brain tissues were measured by ELISA kits (Proteintech Group, Wuhan, China), according to the manufacturer’s instructions.”
as §2

Data set [8] relates to NMDAR2B. The data set can be described thus: Western blotting of rat brain tissue, NMDAR2B. It is filed as in vivo. Particulars: sesamin 60 mg/kg, 4 weeks, vs control. The procedure:
as §1, with “assays.” for “assays. The levels of 24S-hydroxycholesterol in rat plasma and brain tissues were measured by ELISA kits (Proteintech Group, Wuhan, China), according to the manufacturer’s instructions.”
as §2

Data set [9] deals with CYP46A1 mRNA. Briefly: Quantitative real-time PCR of rat brain, CYP46A1 mRNA. In kind it is in vivo. Particulars: sesamin 60 mg/kg, 4 weeks, vs control. The procedure:
as §1, with “experimental procedure was performed as described previously ([Wen et al., 2018]). Total brain RNA and cDNA synthesis were meausured with an RNAiso Plus Reagent Kit and SYBR Premix Ex Taq Kit, respectively (Takara Biotechnology, Dalian, China). Quantitative real-time PCR was performed using SYBR Green PCR Master Mix and an ABI prim 7500 Sequence Detection System (Applied Biosystems, United States). Primers used for RT-qPCR are shown” for “levels of 24S-hydroxycholesterol”, “Supplementary Table S2.” for “rat plasma and brain tissues were measured by ELISA kits (Proteintech Group, Wuhan, China), according to the manufacturer’s instructions.”

Data set [10] concerns HMGCR mRNA. Briefly: Quantitative real-time PCR of rat brain, HMGCR mRNA. Particulars: sesamin 60 mg/kg, 4 weeks, vs control. It is filed as in vivo. The procedure: as §1, with “experimental procedure was performed as described previously ([Wen et al., 2018]). Total brain RNA and cDNA synthesis were meausured with an RNAiso Plus Reagent Kit and SYBR Premix Ex Taq Kit, respectively (Takara Biotechnology, Dalian, China). Quantitative real-time PCR was performed using SYBR Green PCR Master Mix and an ABI prim 7500 Sequence Detection System (Applied Biosystems, United States). Primers used for RT-qPCR are shown” for “levels of 24S-hydroxycholesterol”, “Supplementary Table S2.” for “rat plasma and brain tissues were measured by ELISA kits (Proteintech Group, Wuhan, China), according to the manufacturer’s instructions.”
Background: In qPCR the cycle at which signal appears reflects the starting amount.

For data set [11], the system named is CYP2C9. Conditions: read-out: value of competitive inhibition of 7-position hydroxylation of S-warfarin, ref Fujii et al., 2020; cited from earlier work.
The nature of data set [12]: in vitro. Conditions: dog, MDCK-MDR1.
Description: as §3, §4

Each structure is given as a SMILES string.

T1 sequence (Q9Y6A2 whole entry): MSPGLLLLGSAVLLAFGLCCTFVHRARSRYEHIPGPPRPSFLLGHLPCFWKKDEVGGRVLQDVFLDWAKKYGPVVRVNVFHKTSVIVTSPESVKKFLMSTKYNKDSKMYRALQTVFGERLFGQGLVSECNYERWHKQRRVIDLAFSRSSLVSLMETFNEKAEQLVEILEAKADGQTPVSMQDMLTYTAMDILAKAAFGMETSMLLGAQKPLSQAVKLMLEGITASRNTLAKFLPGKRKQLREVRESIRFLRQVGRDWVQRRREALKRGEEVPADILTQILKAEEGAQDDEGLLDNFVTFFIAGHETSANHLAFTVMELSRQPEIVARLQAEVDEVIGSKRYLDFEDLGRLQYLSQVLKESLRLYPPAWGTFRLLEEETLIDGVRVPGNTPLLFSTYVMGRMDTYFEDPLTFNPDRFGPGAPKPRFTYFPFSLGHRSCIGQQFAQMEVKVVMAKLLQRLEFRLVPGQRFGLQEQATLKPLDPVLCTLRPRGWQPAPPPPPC

Turning to `Oc1ccc2c(c1)OCO2` [Sesamol, sesamol], in data set [1], the “residual activity of CYP46A1” value came to 59.4%; the IC50 (as a rule, the midpoint of a concentration-inhibition curve) amounted to 21.3 ± 4.74 µM; the Ki turned out to be 18.7 ± 0.72 µM; the Type of inhibition result is reported as “Non-competitive”. The “reduction of CYP46A1 protein level vs control” value (shortened to “reduction … vs control”) in data set [2] is 26.1%. For the same molecule, the Papp (commonly a coefficient for how fast a substance crosses the barrier) at 120 min, 20 μM in [3] was 35.3 ×10⁻⁶ cm/s.

As to `c1cc2c(cc1[C@H]1OC[C@H]3[C@@H]1CO[C@@H]3c1ccc3c(c1)OCO3)OCO2` [Sesamin, sesamin], in data set [1], the “residual activity of CYP46A1” value came to 36.2%, the α stood at 6.491, the IC50 was found to be 6.02 µM and the Ki was determined as 6.87 ± 1.07 µM. Moreover, in [1], the Type of inhibition entry was “mixed inhibition”. For the same molecule, in [1] (listed as sesamin), the Type of inhibition result is “mixed partial competitive inhibition”. In addition, in [2], the “reduction … vs control” value was 28.1%. In [4], the “decrease of 24S-HC level in brain” value was 29.3%, the “plasma concentration of 24S-HC” value amounted to 45.747 ng/mL and the “reduction of 24S-HC level in plasma” value was 55.88%. Moreover, in data set [5], the “reduction of CYP46A1 protein expression in rat brain tissue” value is 27.3%. Moreover, in data set [6], the “reduction of HMGCR protein expression in rat brain tissue” value stood at 31.6%. For the same molecule, the “reduction of NMDAR2A protein expression in rat brain tissue” value in data set [7] is recorded as 22.1%. The “reduction of NMDAR2B protein expression in rat brain tissue” value in [8] was found to be 43.5%. Also, the “change of CYP46A1 mRNA expression in rat brain” value in [9] is given as “no significant changes”. The “change of HMGCR mRNA expression in rat brain” value in data set [10] is reported as “no significant changes”. Further, the Ki in data set [11] is 13.1 µM. The molecule further showed an apparent permeability coefficient (Papp) at 120 min, 20 μM in data set [3] of 6.75 ×10⁻⁶ cm/s.

Take `c1cc2c(cc1O[C@H]1OC[C@H]3[C@@H]1CO[C@@H]3c1ccc3c(c1)OCO3)OCO2` [Sesamolin, sesamolin]: in [1], the “residual activity of CYP46A1” value amounted to 25.8%, the α is listed as 4.891, the IC50 came to 3.34 ± 0.543 µM and the Ki was found to be 4.02 ± 0.786 µM. Also, the Type of inhibition result in [1] is “Mixed”. The Type of inhibition entry in [1] (listed as sesamolin) is reported as “mixed partial competitive inhibition”. In addition, the “reduction … vs control” value in [2] is listed as 57.1%. In addition, the Papp at 120 min, 20 μM in data set [12] amounted to 20.5 ×10⁻⁶ cm/s.
